We go through two molecules from patent US9902684B2, “Compound isolated from Isodon forrestii var. forrestii and preparation method and applications thereof” (JIANGSU PROVINCE INSTITUTE OF TRADITIONAL CHINESE MEDICINE, priority 2016, dated 2018).

Molecules are shown by their SMILES. Residues, ends and D or L forms follow the SMILES beside them. *: point of attachment. Cbz = O=C(OCc1ccccc1)*; CH2F = FC* Where only a bound is given, the exact number is not on record here.

The subject of series [1] is HepG2 cell. Briefly: Annexin V flow cytometry analysis of apoptosis. Particulars: FIG. 5. The class given is cell-based, human. On the procedure: (§1) Dissolving Iso A (purity >99%) in DMSO, and preserving stock solution with concentration of 40 mM in −20° C. Detecting the inhibition effects of Iso A in various cells that includes liver cancer cell, breast cancer cell, lung cancer cell, osteosarcoma cell, melanoma cell, cervical cancer cell etc., and in normal human hepatocyte L02, human embryo lung cell HFL1, human mammary epithelial cell MCF 10A. […] Among tested cells, HepG2 cell is the most sensitive to Iso A, thus HepG2 is selected as a model in follow-up experiments.
A general note: A flow cytometer gives signals particle by particle.

For series [2], the system named is tumor cells (liver cancer, breast cancer, lung cancer, osteosarcoma, melanoma, cervical cancer cell). Nature of the series: MTT experiment, growth inhibition of various tumor cells. Format: cell-based. Particulars: Homo sapiens; all tested tumor cells; FIG. 2. As to the method:
as §1

In series [3] the test system is HepG2 xenograft. Nature of the series: Murine xenograft tumor model of hepatocellular carcinoma. Format: in vivo, BALB/c nude mouse. Particulars: 15 mg/kg once daily, 15 days, vs control group. The text has this:
• a) Cell line: Human hepatocellular carcinoma cell line HepG2 is bought from the Cell Bank of Chinese Academy of Sciences for Type Culture Collection • b) Animal: 20 BALB/c male nude mouse with weight of (13±2 g), the BALB/c mice is bought from Model Animal Research Center of Nanjing University, the animal is bred under the environment without a special pathogen in the Animal Center of Jiangsu Traditional Chinese Medicine Research Institution [SCXK( ? ) 2002-0001]. • c) Pharmaceutical: Iso A 2. Experiment Method: • a) Make of a murine xenograft model ofepatocellular carcinoma: HepG2 cells in log phase are digested with trypin, and suspended with a final density of 2×10^7 cells/ml. Then, 200 μl (100 μl cells+100 μl matrigel) cell suspension is inoculated into the right subaxillary of nude mice with 1 ml injector. • b) Group and administration of experimental animal: grouping when the tumor becomes 100 mm^3 into 10 per group (same average volume per group, too big or small ones are eliminated). Grouping specifically as followings: (1) Iso A 15 mg/kg dose group, (2) solvent control group (0.5% CMC-Na). […] Antitumor effect is determined by tumor inhibition rate. […]

The nature of series [4]: Toxicity assessment in xenograft mice (weight, serum indices, blood routine). The class given is in vivo, BALB/c nude mouse. Particulars: 15 mg/kg. The text has this: • a) Cell line: Human hepatocellular carcinoma cell line HepG2 is bought from the Cell Bank of Chinese Academy of Sciences for Type Culture Collection • b) Animal: 20 BALB/c male nude mouse with weight of (13±2 g), the BALB/c mice is bought from Model Animal Research Center of Nanjing University, the animal is bred under the environment without a special pathogen in the Animal Center of Jiangsu Traditional Chinese Medicine Research Institution [SCXK( ? ) 2002-0001]. • c) Pharmaceutical: Iso A 2. Experiment Method: • a) Make of a murine xenograft model ofepatocellular carcinoma: HepG2 cells in log phase are digested with trypin, and suspended with a final density of 2×10^7 cells/ml. Then, 200 μl (100 μl cells+100 μl matrigel) cell suspension is inoculated into the right subaxillary of nude mice with 1 ml injector. • b) Group and administration of experimental animal: grouping when the tumor becomes 100 mm^3 into 10 per group (same average volume per group, too big or small ones are eliminated). Grouping specifically as followings: (1) Iso A 15 mg/kg dose group, (2) solvent control group (0.5% CMC-Na). Administrate one time every day for total 15 days. • c) Sample selection and index observation: • i. observation for normal state: before drug administration, measure the weight and tumor size (tumor volume V=long diameter×short diameter^2/2) one time every day. Observe the locomotor activity, mental state, hair, breath, diet, manure trait and reaction to outside world of the mice. After ending pharmaceutical interference, the mice are anesthetized and the blood is acquired by cardiac puncture. The serum is got by centrifugation and store in −80° C. After the skin of the tumor growing part on the right axilla of the mice is nipped by forceps, use a surgical scissors to cut the skin for exposing the tumor, then use the surgical scissors to dissect the tumor with blunt dissection and use a scale to weigh the tumor, transplanted tumor and calculate the inhibition rate. Antitumor effect is determined by tumor inhibition rate. Tumor inhibition rate (%)=[1−(average weight of tumor in experimental group/average weight of tumor in control group)]×100% • ii. Detecting apoptosis of tumor tissues with TUNEL staining: according to TUNEL apoptosis detection kit specification of Roche Inc. after fixing frozen tissue section in room temperature. • iii. Blood routine examination for assessing the marrow toxicity of Iso A, analyze ALT, AST, ALP level in plasma for assessing hepatotoxicity of Iso A, and measure the creatinine and urea nitrogen for assessing renal damage.
Fabricate mice transplanted hepatocellular carcinoma model, and group mice into control group and Iso A (15 mg/kg) administration group at random. Record the weight and tumor size one time every three days and kill the mice after 15-day-administration for detection and analysis of the tumor tissues, blood etc.

Series [5] addresses T1, Trx1 (Homo sapiens, UniProt P10599).
T1 sequence (P10599 1-105): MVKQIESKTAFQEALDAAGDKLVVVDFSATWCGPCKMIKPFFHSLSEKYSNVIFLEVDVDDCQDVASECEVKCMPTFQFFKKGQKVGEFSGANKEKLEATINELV
Nature of the series: Trx1 activity in xenograft tumor tissues. Particulars: 15 mg/kg once daily, 15 days; FIG. 12. The class given is in vivo, BALB/c nude mouse. Details: from tissue; host or cells: HepG2 xenograft tumor from BALB/c nude mice. On the procedure:
Methods for measuring Trx1 activity in cells or tissue samples: using lysates (20 mM HEPES (pH 7.9), 300 mM NaCl, 100 mM KCl, 10 mM EDTA and 0.1% Nonidet P-40, protease-contained inhibitor) to lyse the cells or tissue samples. Pre-treating 90 μg protein at 37° C. for 15 min by using DTT activation buffer (50 mmol/liter HEPES (pH 7.6), 1 mmol/liter EDTA, 1 mg/ml bovine serum albumin, and 2 mmol/liter dithiothreitol). Then adding 20 μl reaction mixture (200 μl of 1 M HEPES (pH 7.6), 40 μl of 0.2 mol/liter EDTA, 40 μl of NADPH (40 mg/ml)) and 500 μl insulin. Adding 5 μl thioredoxin reductase for initial reaction while adding water of same volume into the control group. Incubate the samples in 37° C. for 20 min, and then add 6 M guanidine hydrochloride of 0.25 ml and 0.4 mg/ml DTNB to terminate reaction. […]
• a) Cell line: Human hepatocellular carcinoma cell line HepG2 is bought from the Cell Bank of Chinese Academy of Sciences for Type Culture Collection • b) Animal: 20 BALB/c male nude mouse with weight of (13±2 g), the BALB/c mice is bought from Model Animal Research Center of Nanjing University, the animal is bred under the environment without a special pathogen in the Animal Center of Jiangsu Traditional Chinese Medicine Research Institution [SCXK( ? ) 2002-0001]. • c) Pharmaceutical: Iso A 2. […] Antitumor effect is determined by tumor inhibition rate. […]

The subject of series [6] is human normal hepatic cell line L02. Nature of the series: MTT assay, normal hepatic cell L02 growth. The class given is cell-based. Particulars: various concentrations, 24 hours; FIG. 3. As to the method: as §1
Background: Formazan colour is commonly taken as a measure of viable cells.

The target of series [7] is T1, Trx1. Briefly: Mass spectrometry analysis of direct conjugation with Trx1 protein. Format: binding. On the set-up: purchased Sino Biological Inc. Particulars: 2 h room temperature, MALDI mass spectrometry; FIG. 8. On the procedure: Human-derived Trx1 protein (Sino Biological Inc.) is dissolved in distilled water at a 5 mg/ml and stored. In 25 mM Tris-HCl (pH 7.4) buffer, mixi 4 μl Iso A with 140 μl human Trx1 protein to incubate for 2 h in room temperature. Samples after reaction is treated by Shimadzu Biotech Proteome kit for enzymatic hydrolysis with MonoSpin Trypsin, then desalted by MonoSpin® C18 column for mass spectrometry analysis with MALDI 7090 (SHIMADZU).

Series [8] concerns the target T1, Trx1. Briefly: In vitro Trx1 activity, Thioredoxin Activity Fluorescent Assay Kit. The class given is biochemical. On the set-up: purchased Sino Biological Inc. Particulars: read-out: inhibition rate of Trx1 activity. On the procedure: Trx1 protein was bought from Sino Biological Inc., Trx1 activity detection kit was bought from American Caymen Chemical cooperation.
The in vitro activity of Trx is assayed using the—Thioredoxin Activity Fluorescent Assay Kit (Caymen Chemical). According to the instructions of the kit 2 μl of Iso A with different concentrations (0.195 μM to 100 μM) is added into 0.02 μM Trx mix, following by adding 5 μl of β-NADPH into each sample to incubate in 37° C. for 30 min. Then, a fluorescent substrate is added and Trx1 activity is was recorded as the emission at 518 nm after 488 nm excitation for 30-60 min, with a Thermo Scientific Varioskan Flash fluorescent microplate reader.

Series [9] concerns human normal hepatic cell L02. Briefly: Trypan blue exclusion assay, normal cells. The class given is cell-based. Particulars: various concentrations, 24 hours; FIG. 4. As to the method:
as §1

Series [10] deals with HepG2 cells. Nature of the series: Trypan blue exclusion assay, HepG2. Format: cell-based, human. Particulars: various concentrations, 24 hours; FIG. 4. On the procedure:
as §1

The target of series [11] is T1, Trx1. Briefly: Trx1 activity in HepG2 cells (insulin reduction/DTNB). The class given is cell-based. Details: endogenous in cells; host or cells: HepG2. Particulars: 10-30 μM for 8 hours; relative to 0.5% DMSO control; FIG. 7. As to the method:
Methods for measuring Trx1 activity in cells or tissue samples: using lysates (20 mM HEPES (pH 7.9), 300 mM NaCl, 100 mM KCl, 10 mM EDTA and 0.1% Nonidet P-40, protease-contained inhibitor) to lyse the cells or tissue samples. Pre-treating 90 μg protein at 37° C. for 15 min by using DTT activation buffer (50 mmol/liter HEPES (pH 7.6), 1 mmol/liter EDTA, 1 mg/ml bovine serum albumin, and 2 mmol/liter dithiothreitol). Then adding 20 μl reaction mixture (200 μl of 1 M HEPES (pH 7.6), 40 μl of 0.2 mol/liter EDTA, 40 μl of NADPH (40 mg/ml)) and 500 μl insulin. Adding 5 μl thioredoxin reductase for initial reaction while adding water of same volume into the control group. Incubate the samples in 37° C. for 20 min, and then add 6 M guanidine hydrochloride of 0.25 ml and 0.4 mg/ml DTNB to terminate reaction. Detecting optical absorption of 412 nm.
Cultivate human hepatocellular carcinoma cell line HepG2 in vitro culture. […] Calculate the relative activity of Trxl in each group under the condition that negative control activity is 1.

The test system of series [12] is hepatocellular carcinoma cell line HepG2. Briefly: MTT assay, HepG2 cell growth. The class given is cell-based, human. Particulars: various concentrations, 24 hours; FIG. 3. On the procedure: as §1

As for `COC(=O)C[C@H](NC(=O)[C@H](C)NC(=O)[C@@H](NC(=O)OCc1ccccc1)C(C)C)C(=O)CF` [Z-VAD-FMK, reference compound] (Cbz-Val-Ala-Asp(OMe)-CH2F), the “effect of pan-caspase inhibitor on apoptosis induced by Iso A” value in series [1] (HepG2) is reported as “partially inhibits the apoptosis induced by Iso A”.
Regarding `C=C1C(=O)[C@]23C[C@H]1[C@@H](OC(C)=O)[C@H](OC(C)=O)[C@H]2[C@]1(C)C[C@H](OC(C)=O)[C@H](OC(C)=O)C(C)(C)[C@H]1[C@@H](O)C3` [Iso A, Isoforresin A], the IC50 in series [2] is under 30 µM. In [3] (FIG. 10), the tumor volume result is listed as “significantly decreased”. Also, in series [3] (FIG. 11), the tumor weight entry is “significantly decreased”. The “toxic or side effects on marrow, liver and kidney” value in series [4] (15 days, xenograft murine model) was “no toxic or side effects”. In series [4] (15 days, FIG. 13), the “ALP level in serum” value was “no obvious difference”, the “ALT level in serum” value is reported as “no obvious difference” and the “AST level in serum” value is recorded as “no obvious difference”. Also, in series [4] (15 days, FIG. 14), the “creatinine level in serum” value was “no obvious difference” and the “urea nitrogen level in serum” value is “no obvious difference”. For the same molecule, the “body weight of mice” value in [4] (during administration, vs control group, FIG. 9) is “no difference in weight”. The “Annexin V positive cells (apoptosis)” value in [1] (HepG2, 10 or 20 μM Iso A, 24 hours) is recorded as “increasement of Annexin V positive cells”. Further, the “Trx1 activity in the tumor tissues” value in series [5] was “significantly decreased”. In series [6], the “inhibition of L02 cell growth (MTT)” value is given as “no obvious inhibitory effects”. In [7], the “direct binding/conjugation with Trx1 protein (Cys 32/35)” value is reported as “can directly bind with Trx1 protein”. In series [8], the inhibition at 2.5 µM came out at 20%, the inhibition at 5 µM turned out to be 48.6% and the inhibition at 10 µM was 98%. For the same molecule, the “toxicity to normal cells (trypan blue exclusion)” value in series [9] was “obviously not toxic”. Moreover, in [10], the “cell death of HepG2 cells (trypan blue exclusion)” value is recorded as “selectively trigger the death of HepG2 cells”. Besides, in series [11], the “Trx1 activity in HepG2 cells” value is on record as “significantly reduced”. Further, the “inhibition of HepG2 cell growth (MTT)” value in series [12] is “inhibit the growth of HepG2 cell in a concentration-dependent manner”.

In general, IC50 refers to the concentration that inhibits the measured activity by half. A low value points to higher potency. By inhibition is commonly meant the drop in the measured response relative to a control, in per cent.
